Reference: US20150141411A1, “SUBSTITUTED 3,4-DIHYDRO-2H-PYRIDO[1,2-A]PYRAZINE-1,6-DIONE DERIVATIVES USEFUL FOR THE TREATMENT OF (INTER ALIA) ALZHEIMER'S DISEASE” (Janssen Pharmaceuticals, Inc., priority 2012, published 2015)

Key:
Aβtotal = test: In vivo efficacy: brain soluble Aβtotal in non-transgenic rodents (ELISA); details: Mus musculus, dose 30 mg/kg oral dosing, brain soluble fraction, animals sacrificed after 4 h, untreated animals (Ctrl) set at 100, read-out: Aβtotal (% vs Ctrl)_Mean
Text: To determine whether acute administration of an Aβ42 lowering agent would reduce Aβ42 levels in vivo, non-transgenic rodents, e.g. mice or rats were used. Animals treated with the Aβ42 lowering agent were examined and compared to those untreated or treated with vehicle and brain levels of soluble Aβ42 and total Aβ were quantitated by standard techniques, for example, using ELISA. Treatment periods varied from hours (h) to days and were adjusted based on the results of the Aβ42 lowering once a time course of onset of effect could be established.
A typical protocol for measuring Aβ42 lowering in vivo is shown but it is only one of many variations that could be used to optimize the levels of detectable Aβ. For example, Aβ42 lowering compounds were formulated in 20% of Captisol® (a sulfobutyl ether of β-cyclodextrin) in water or 20% hydroxypropyl β cyclodextrin. The Aβ42 lowering agents were administered as a single oral dose or by any acceptable route of administration to overnight fasted animals. After 4 h, the animals were sacrificed and Aβ42 levels were analysed.
Blood was collected by decapitation and exsanguinations in EDTA-treated collection tubes. Blood was centrifuged at 1900 g for 10 minutes (min) at 4° C. and the plasma recovered and flash frozen for later analysis. The brain was removed from the cranium and hindbrain. The cerebellum was removed and the left and right hemisphere were separated. The left hemisphere was stored at −18° C. for quantitative analysis of test compound levels. The right hemisphere was rinsed with phosphate-buffered saline (PBS) buffer and immediately frozen on dry ice and stored at −80° C. until homogenization for biochemical assays.
Mouse brains from non-transgenic animals were resuspended in 8 volumes of 0.4% DEA (diethylamine)/50 mM NaCl containing protease inhibitors (Roche-11873580001 or 04693159001) per gram of tissue, e.g. for 0.158 g brain, add 1.264 ml of 0.4% DEA. All samples were homogenized in the FastPrep-24 system (MP Biomedicals) using lysing matrix D (MPBio #6913-100) at 6 m/s for 20 seconds. Homogenates were centrifuged at 221.300×g for 50 min. The resulting high speed supernatants were then transferred to fresh eppendorf tubes. Nine parts of supernatant were neutralized with 1 part 0.5 M Tris-HCl pH 6.8 and used to quantify Aβtotal and Aβ42.
To quantify the amount of Aβtotal and Aβ42 in the soluble fraction of the brain homogenates, Enzyme-Linked-Immunosorbent-Assays were used. Briefly, the standards (a dilution of synthetic Aβ1-40 and Aβ1-42, Bachem) were prepared in 1.5 ml Eppendorf tube in Ultraculture, with final concentrations ranging from 10000 to 0.3 pg/ml. The samples and standards were co-incubated with HRPO-labelled N-terminal antibody for Aβ42 detection and with the biotinylated mid-domain antibody 4G8 for Aβtotal detection. 50 μl of conjugate/sample or conjugate/standards mixtures were then added to the antibody-coated plate (the capture antibodies selectively recognize the C-terminal end of Aβ42, antibody JRF/cAβ42/26, for Aβ42 detection and the N-terminus of Aβ, antibody JRF/rAβ/2, for Aβtotal detection). The plate was allowed to incubate overnight at 4° C. in order to allow formation of the antibody-amyloid complex. Following this incubation and subsequent wash steps the ELISA for Aβ42 quantification was finished by addition of Quanta Blu fluorogenic peroxidase substrate according to the manufacturer's instructions (Pierce Corp., Rockford, Ill.). A reading was performed after 10 to 15 min (excitation 320 nm/emission 420 nm).
For Aβtotal detection, a Streptavidine-Peroxidase-Conjugate was added, followed 60 min later by an additional wash step and addition of Quanta Blu fluorogenic peroxidase substrate according to the manufacturer's instructions (Pierce Corp., Rockford, Ill.). A reading was performed after 10 to 15 min (excitation 320 nm/emission 420 nm). […]

| melting point [°C] | SMILES | response vs control in vivo at 30 mg/kg (Aβtotal) [%] |
| --- | --- | --- |
| 203.8 | Cc1cn(-c2ccc3n(c2=O)CCN(C(C)c2cccc(Cl)c2Cl)C3=O)cn1 (single isomer, unassigned) [10a] | 118 |
| 147.3 | Cc1cn(-c2ccc3n(c2=O)CC(C)N(C(C)c2cc(C(F)(F)F)cc(C(F)(F)F)c2)C3=O)cn1.Cl (single isomer, unassigned) [compound 111] |  |
| 259 | Cc1cn(-c2ccc3n(c2=O)CC(C)N(C(C)c2cc(C(F)(F)F)cc(C(F)(F)F)c2)C3=O)cn1.Cl (single isomer, unassigned) [compound 112] |  |
| 258 | Cc1cn(-c2ccc3n(c2=O)CCN(C(C)c2cn(C)c4cc(F)c(Cl)cc24)C3=O)cn1 (single isomer, unassigned) [compound 185] |  |
| 263 | Cc1cn(-c2ccc3n(c2=O)CC(C)N(C(C)c2cn(C)c4cc(F)c(Cl)cc24)C3=O)cn1 (single isomer, unassigned) [compound 189] |  |
| 263 | Cc1cn(-c2ccc3n(c2=O)CC(C)N(C(C)c2c[nH]c4c(F)cc(Cl)cc24)C3=O)cn1 (single isomer, unassigned) [compound 219] |  |
| 203.6 | CCC1Cn2c(ccc(-n3cnc(C)c3)c2=O)C(=O)N1Cc1cc(C(F)(F)F)cc(C(F)(F)F)c1.Cl (centres unmarked) [compound 1] | 89 |
| 185 | Cc1cn(-c2ccc3n(c2=O)C[C@@H](C)N(Cc2ccc(Cl)c(Cl)c2)C3=O)cn1 [compound 2] | 100 |
| 176.6 | Cc1cn(-c2ccc3n(c2=O)CC(C)N(Cc2cc(C(F)(F)F)cc(C(F)(F)F)c2)C3=O)cn1 (centres unmarked) [compound 3] | 98 |
| 165.6 | Cc1cn(-c2ccc3n(c2=O)CCN(Cc2cccc(-c4ccccc4)c2)C3=O)cn1 [compound 5] | 87 |
| 175.4 | Cc1cn(-c2ccc3n(c2=O)CC(C)N(Cc2cc(OCC4CC4)cc(C(F)(F)F)c2)C3=O)cn1.Cl (centres unmarked) [compound 6] | 102 |
| 290 | CCc1cn(-c2ccc3n(c2=O)CC(C)N(Cc2cc(C(F)(F)F)cc(C(F)(F)F)c2)C3=O)cn1.Cl (centres unmarked) [compound 7] | 94 |
| 186.1 | Cc1cn(-c2ccc3n(c2=O)CCN(Cc2ccccc2C)C3=O)cn1 [compound 22] | 92 |
|  | Cc1cn(-c2ccc3n(c2=O)C[C@@H](C)N(Cc2cccc(C(C)(C)C)c2)C3=O)cn1 [compound 23] | 122 |
| 145.6 | Cc1cn(-c2ccc3n(c2=O)C[C@@H](C)N(Cc2ccc(C(F)(F)F)c(C(F)(F)F)c2)C3=O)cn1 [compound 46] | 87 |
|  | Cc1cn(-c2ccc3n(c2=O)C[C@@H](C)N(CCc2cc(C(F)(F)F)cc(C(F)(F)F)c2)C3=O)cn1 [compound 50] | 91 |
| 167.7 | Cc1cc(CN2C(=O)c3ccc(-n4cnc(C)c4)c(=O)n3C[C@H]2C)cc(C(F)(F)F)c1 [compound 59] | 126 |
|  | Cc1cn(-c2ccc3n(c2=O)C[C@@H](C)N(Cc2ccc(Cl)c(C(F)(F)F)c2)C3=O)cn1 [compound 62] | 98 |
| 180.4 | Cc1cn(-c2ccc3n(c2=O)C[C@@H](C)N(Cc2cc(Cl)cc(C(F)(F)F)c2)C3=O)cn1 [compound 63] | 124 |
| 195.1 | Cc1cn(-c2ccc3n(c2=O)CCN(Cc2ccc(Cl)c(C(F)(F)F)c2)C3=O)cn1 [compound 65] | 114 |
|  | Cc1cn(-c2ccc3n(c2=O)C[C@@H](C)N(Cc2cc(N4CCC(C)CC4)ccc2Cl)C3=O)cn1 [compound 80] | 119 |
|  | Cc1cn(-c2ccc3n(c2=O)C[C@@H](C)N(Cc2cc(N4CCCC4)ccc2Cl)C3=O)cn1 [compound 82] | 125 |
|  | Cc1cn(-c2ccc3n(c2=O)CCN(Cc2ccc(C)c(N4CCCCC4)c2)C3=O)cn1 [compound 99] | 113 |
| 157.9 | C[C@@H]1Cn2c(ccc(-n3cnc(Cl)c3)c2=O)C(=O)N1Cc1cc(C(F)(F)F)cc(C(F)(F)F)c1 [compound 118] |  |
| 198.1 | Cc1cn(-c2ccc3n(c2=O)C[C@@H](C)N(Cc2ccc(F)c(F)c2)C3=O)cn1 [compound 133] |  |
| 137.1 | Cc1cn(-c2cc(F)c3n(c2=O)C[C@@H](C)N(Cc2cc(C(F)(F)F)cc(C(F)(F)F)c2)C3=O)cn1 [compound 158] |  |
